The target of this assay is T1, 3-hydroxy-methylglutaryl CoA reductase (HMGCR) (Homo sapiens, UniProt P04035).
T1 sequence (P04035 1-888): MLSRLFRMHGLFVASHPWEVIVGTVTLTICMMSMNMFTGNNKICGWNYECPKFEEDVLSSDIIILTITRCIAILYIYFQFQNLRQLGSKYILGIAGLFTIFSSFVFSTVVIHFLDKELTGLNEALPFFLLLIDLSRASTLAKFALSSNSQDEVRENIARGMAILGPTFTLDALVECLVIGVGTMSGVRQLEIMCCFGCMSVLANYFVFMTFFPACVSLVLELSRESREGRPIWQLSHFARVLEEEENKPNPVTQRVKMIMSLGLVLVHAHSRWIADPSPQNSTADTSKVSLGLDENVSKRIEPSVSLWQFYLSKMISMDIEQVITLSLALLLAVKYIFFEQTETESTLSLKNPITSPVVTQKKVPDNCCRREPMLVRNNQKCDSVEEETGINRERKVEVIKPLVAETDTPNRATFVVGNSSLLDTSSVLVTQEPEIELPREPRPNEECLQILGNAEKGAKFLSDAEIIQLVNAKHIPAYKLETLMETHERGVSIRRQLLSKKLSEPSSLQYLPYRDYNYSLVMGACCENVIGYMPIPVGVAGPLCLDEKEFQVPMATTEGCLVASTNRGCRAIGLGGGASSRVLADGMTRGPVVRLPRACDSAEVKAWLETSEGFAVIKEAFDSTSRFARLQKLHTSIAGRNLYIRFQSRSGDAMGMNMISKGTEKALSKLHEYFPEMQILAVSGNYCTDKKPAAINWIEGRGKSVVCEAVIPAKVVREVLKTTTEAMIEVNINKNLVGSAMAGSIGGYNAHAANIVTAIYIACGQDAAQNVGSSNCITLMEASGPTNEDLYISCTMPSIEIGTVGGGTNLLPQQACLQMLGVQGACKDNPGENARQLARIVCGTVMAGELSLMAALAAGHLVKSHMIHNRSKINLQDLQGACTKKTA
The assay can be described thus: SPR direct binding assay (PB listed as stationary phase).

The text below walks through data of article PMC9160031, “Identification of HMGCR as the anticancer target of physapubenolide against melanoma cells by in silico target prediction” (Acta Pharmacologica Sinica, 2021).

Structures are written as SMILES.

A word on the Kd: it is the equilibrium constant for the complex coming apart. On to `CC(=O)O[C@H]1CC([C@H](C)C2CC(C)=C(C)C(=O)O2)[C@@]2(C)CCC3C(C[C@H]4O[C@]45[C@@H](O)C=CC(=O)[C@]35C)[C@]12O` (stereo partly shown) [PB, Physapubenolide], for which the Kd came out at 1460 nM.
